The values that follow come from PMC11462347 (Heliyon, 2024).

Each structure is given as a SMILES string.

For assay [1], the target named is T1, tyrosinase (Agaricus bisporus, UniProt C7FF04). As to the kind of experiment: Kinetic assay for inhibition action. It is filed as biochemical. The conditions noted are these: for Inhibition type: Lineweaver-Burk plot.
Target sequence in this assay (C7FF04 1-392): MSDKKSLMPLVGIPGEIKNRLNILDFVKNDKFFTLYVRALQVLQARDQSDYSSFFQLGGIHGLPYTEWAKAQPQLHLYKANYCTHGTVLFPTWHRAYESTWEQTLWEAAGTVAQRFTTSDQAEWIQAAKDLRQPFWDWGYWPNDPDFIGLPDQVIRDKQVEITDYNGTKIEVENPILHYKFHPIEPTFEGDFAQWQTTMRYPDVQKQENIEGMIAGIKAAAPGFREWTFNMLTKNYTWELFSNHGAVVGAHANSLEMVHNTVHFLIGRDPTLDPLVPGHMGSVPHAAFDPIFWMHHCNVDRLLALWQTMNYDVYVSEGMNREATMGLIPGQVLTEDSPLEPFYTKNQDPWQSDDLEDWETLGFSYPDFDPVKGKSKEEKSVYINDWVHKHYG
The target of assay [2] is T1, tyrosinase. As to the kind of experiment: Fluorescence quenching of tyrosinase. As to conditions: for Kd: Ka; for quenching mechanism: Ksv decreasing with temperature; for ΔH / ΔS: van't Hoff equation, 298-310 K. The format is binding.
Target sequence in this assay (C7FF04 1-392 limits assumed): as the sequence (C7FF04 1-392) above
Assay [3] deals with T1, tyrosinase. As to the kind of experiment: biochemical.
Target sequence in this assay (C7FF04 1-392): as above

In general, Kd refers to the constant that tells how readily two partners part at equilibrium. A higher Kd goes with weaker binding. By IC50 is commonly meant the concentration that gives 50% inhibition. A high value points to a need for much substance. `COc1cc(-c2oc3cc(O)cc(O)c3c(=O)c2O)ccc1O` [Isorhamnetin]: on tyrosinase [1], the Inhibition type entry is given as “Mixed”. Besides, the Inhibition type result at tyrosinase [1] (listed as isorhamnetin) is on record as “mixed inhibition”. The molecule further displayed a Kis on tyrosinase [1] (binding to enzyme-substrate complex) of 0.924 ± 0.02 mg/mL. Further, at tyrosinase [2], the “numbers of binding sites (n)” value was roughly 1, the quenching mechanism entry is recorded as “static”, the ΔH is -4.48 ± 2.1 kJ/mol and the ΔS is on record as −5.10 ± 1.19 J mol^−1k^−1. On tyrosinase [2] (298 K), the Kq is 0.73 × 10^12 L mol^−1 S^−1. Besides, on tyrosinase [2] (304 K), the Kq is 0.65 × 10^12 L mol^−1 S^−1. Further, at tyrosinase [2] (310 K), the Kq is recorded as 0.51 × 10^12 L mol^−1 S^−1. Moreover, at tyrosinase [2] (T 298 K), the Kd was 5.46 µM, the KSV is listed as 0.73 ± 0.01 10^4L·mol^−1, the “n (number of binding sites)” value stood at 1.10 and the ΔG is -2.96 ± 0.01 kJ/mol. In addition, on tyrosinase [2] (T 304 K), the Kd is 5.18 µM, the KSV is 0.65 ± 0.02 10^4L·mol^−1, the “n (number of binding sites)” value is on record as 1.12 and the ΔG was -2.93 ± 0.01 kJ/mol. For the same molecule, on tyrosinase [2] (T 310 K), the affinity, expressed as Kd, was 9.8 µM; the KSV is 0.51 ± 0.01 10^4L·mol^−1; the “n (number of binding sites)” value is listed as 1.08; the ΔG was -2.90 ± 0.02 kJ/mol. The molecule also registered an IC50 on tyrosinase [3] of 96.4 ± 9.9 µM.
As to `O=c1c(O)c(-c2ccc(O)cc2)oc2cc(O)cc(O)c12` [Kaempferol], the Inhibition type entry at tyrosinase [1] is reported as “Competitive”. Also, on tyrosinase [2], the “numbers of binding sites (n)” value was roughly 1, the quenching mechanism result is “static”, the ΔH came to 10.42 ± 1.1 kJ/mol and the ΔS worked out at 45.03 ± 7.1 J mol^−1k^−1. In addition, the Kq on tyrosinase [2] (298 K) is recorded as 1.03 × 10^12 L mol^−1 S^−1. Moreover, the Kq at tyrosinase [2] (304 K) is on record as 0.83 × 10^12 L mol^−1 S^−1. Moreover, the Kq on tyrosinase [2] (310 K) is given as 0.73 × 10^12 L mol^−1 S^−1. Moreover, at tyrosinase [2] (T 298 K), the Kd was 47.6 µM, the KSV is 1.03 ± 0.04 10^4L·mol^−1, the “n (number of binding sites)” value turned out to be 1.08 and the ΔG is -3.00 ± 0.06 kJ/mol. At tyrosinase [2] (T 304 K), the Kd is 16.9 µM, the KSV is 0.83 ± 0.1 10^4L·mol^−1, the “n (number of binding sites)” value came out at 1.22 and the ΔG is -3.27 ± 0.03 kJ/mol. Moreover, at tyrosinase [2] (T 310 K), the Kd was 12.3 µM, the KSV is 0.73 ± 0.02 10^4L·mol^−1, the “n (number of binding sites)” value amounted to 1.27 and the ΔG was -3.54 ± 0.05 kJ/mol. This molecule gave an IC50 on tyrosinase [3] of 82.1 ± 13.7 µM.
For `O=c1c(O)c(-c2ccc(O)c(O)c2)oc2cc(O)cc(O)c12` [Quercetin], the Inhibition type entry at tyrosinase [1] is reported as “Competitive”. Further, on tyrosinase [2], the “numbers of binding sites (n)” value was roughly 2, the quenching mechanism entry is reported as “static”, the ΔH was found to be 9.12 ± 1.3 kJ/mol and the ΔS is 43.56 ± 3.21 J mol^−1k^−1. In addition, on tyrosinase [2] (298 K), the Kq is on record as 1.44 × 10^12 L mol^−1 S^−1. In addition, the Kq on tyrosinase [2] (304 K) is 1.17 × 10^12 L mol^−1 S^−1. Moreover, the Kq on tyrosinase [2] (310 K) is reported as 1.13 × 10^12 L mol^−1 S^−1. In addition, on tyrosinase [2] (T 298 K), the KSV is recorded as 1.44 ± 0.21 10^4L·mol^−1, the “n (number of binding sites)” value worked out at 1.44 and the ΔG was -3.86 ± 0.05 kJ/mol. Moreover, at tyrosinase [2] (T 304 K), the KSV was 1.17 ± 0.11 10^4L·mol^−1, the “n (number of binding sites)” value is on record as 1.46 and the ΔG is -4.12 ± 0.02 kJ/mol. Also, at tyrosinase [2] (T 310 K), the KSV is 1.13 ± 0.15 10^4L·mol^−1, the “n (number of binding sites)” value came out at 1.61 and the ΔG is -4.39 ± 0.02 kJ/mol.
